# Measurements reported in patent US10499641B2 (priority 2010, dated 2019).
# Columns and labels:
# [1] = pH 7.8
# Phytophthora infestans = format: in vivo; conditions: young tomato plants, sprayed, active ingredient concentration 100 ppm, inoculated 1 day after treatment, evaluation 7 days after inoculation; 100% = no infection
# Plasmopara viticola = test: Plasmopara test (grapevine)/protective; format: in vivo; conditions: young grapevine plants, sprayed, active ingredient concentration 10 ppm, evaluation 6 days after inoculation; 100% = no infection
# Method: Plasmopara Test (Grapevine)/Protective
# • Solvent: 24.5 parts by weight of acetone • 24.5 parts by weight of dimethylacetamide • Emulsifier: 1 part by weight of alkylaryl polyglycol ether
# [To produce an appropriate active ingredient formulation, 1 part by weight of active ingredient is mixed with the specified amounts of solvent and emulsifier, and the concentrate is diluted with water to the desired concentration.
# To test for protective efficacy, young plants are sprayed with the active ingredient formulation at the stated application rate. After the spray coating has dried on, the plants are inoculated with an aqueous spore suspension of Plasmopara viticola and then remain in an incubation cabin at approx. 20° C. and 100% relative air humidity for 1 day. Subsequently, the plants are placed in a greenhouse at approx. 21° C. and approx. 90% air humidity for 4 days. The plants are then moistened and placed in an incubation cabin for 1 day.
# Evaluation follows 6 days after the inoculation. 0% means an efficacy which corresponds to that of the control, whereas an efficacy of 100% means that no infection is observed.
# In this test, the following inventive compounds show, at an active ingredient concentration of 10 ppm, an efficacy of 70% or more: […]
# Peronospora brassicae = test: Peronospora test (oilseed rape seeds)/seed treatment; format: in vivo; conditions: dose 50 g/dt, 14-day-old plants inoculated, incubated 7 days, infected leaf area, 100% = no disease
# Method: Peronospora Test (Oilseed Rape Seeds)/Seed Treatment
# The test was conducted under greenhouse conditions.
# Oilseed rape seeds treated with an inventive active compound or a combination of inventive active compounds dissolved in N-methyl-2-pyrrolidone and diluted with water to the desired dose were sown in 6*6 cm vessels. The vessels contain 4 cm of a 1:1 mixture of steam-treated field soil and sand. The plants grew at 10° C.
# 14-day-old plants were inoculated with an aqueous spore suspension of Peronospora brassicae. The vessels containing the plants were incubated in a greenhouse at a temperature of 15° C. and a relative air humidity of 100% for 7 days.
# The assessment of the test included the evaluation of the infected leaf area per plant. 0% means an efficiency corresponding to that of the control, while an efficiency of 100% means that no disease is observed.
SMILES,logp [b] [1],Eff. % (Phytophthora infestans),Eff. % (Plasmopara viticola),chromatographic logP (physchem; pH 2.7),Eff. % (Peronospora brassicae),chromatographic logP (physchem; pH 7.8)
"CC(C)(C)OC(=O)Nc1ccc(C2CC(c3csc(C4CCN(C(=O)Cn5nc(C(F)F)cc5C(F)F)CC4)n3)=NO2)cc1 (centres unmarked) [Example I-17, tert-Butyl (4-{3-[2-(1-{[3,5-bis(difluoromethyl)-1H-pyrazol-1-yl]acetyl}piperidin-4-yl)-1,3-thiazol-4-yl]-4,5-dihydro-1,2-oxazol-5-yl}phenyl)carbamate]",3.46[b],100%,,,,
"CC(=NO)c1ccccc1C1CC(c2csc(C3CCN(C(=O)Cn4nc(C(F)(F)F)cc4C)CC3)n2)=NO1 (centres unmarked) [Example I-40, 1-[4-(4-{5-[2-(N-Hydroxyethanimidoyl)phenyl]-4,5-dihydro-1,2-oxazol-3-yl}-1,3-thiazol-2-yl)piperidin-1-yl]-2-[5-methyl-3-(trifluoromethyl)-1H-pyrazol-1-yl]ethanone]",,100%,90%,2.92,,
CON=Cc1cccc(F)c1C1CC(c2csc(C3CCN(C(=O)Cn4nc(C(F)F)cc4C(F)F)CC3)n2)=NO1 (centres unmarked) [Example I-60],,84%,100%,,95%,
Cc1cc(C(F)(F)F)nn1CC(=O)N1CCC(c2nc(C3=NOC(c4ccccc4C=NO)C3)cs2)CC1 (mixture of isomers) [Example I-38],,100%,95%,,86%,
O=C(Cn1nc(C(F)F)cc1C(F)F)N1CCC(c2nc(C3=NOC(c4ccccc4C=NO)C3)cs2)CC1 (mixture of isomers) [Example I-4],,100%,100%,,92%,
Cc1cc(C(F)(F)F)nn1CC(=O)N1CCC(c2nc(C3=NOC(c4ccccc4OS(C)(=O)=O)C3)cs2)CC1 (centres unmarked) [Example I-62],,89%,100%,,90%,
CS(=O)(=O)Oc1ccccc1C1CC(c2csc(C3CCN(C(=O)Cn4nc(C(F)F)cc4C(F)F)CC3)n2)=NO1 (centres unmarked) [Example I-124],,100%,100%,,100%,
Cc1cc(C(F)(F)F)nn1CC(=O)N1CCC(c2nc(C3=NOC(c4ccccc4OS(=O)(=O)C4CC4)C3)cs2)CC1 (centres unmarked) [Example I-61],,89%,100%,,90%,
"C[Si](C)(C)C#CCOc1ccccc1C1CC(c2csc(C3CCN(C(=O)Cn4nc(C(F)F)cc4C(F)F)CC3)n2)=NO1 (centres unmarked) [Example I-1, 2-[3,5-Bis(difluoromethyl)-1H-pyrazol-1-yl]-1-(4-{4-[5-(2-{[3-(trimethylsilyl)prop-2-yn-1-yl]oxy}phenyl)-4,5-dihydro-1,2-oxazol-3-yl]-1,3-thiazol-2-yl]piperidin-1-yl}ethanone]",4.58[b],,,,,
"O=C(Cn1nc(C(F)F)cc1C(F)F)N1CCC(c2nc(C3=NOC(c4ccccc4OCC#Cc4cccc5ccccc45)C3)cs2)CC1 (centres unmarked) [Example I-2, 2-[3,5-Bis(difluoromethyl)-1H-pyrazol-1-yl]-1-(4-{4-[5-(2-{[3-(1-naphthyl)prop-2-yn-1-yl]oxy}phenyl)-4,5-dihydro-1,2-oxazol-3-yl]-1,3-thiazol-2-yl}piperidin-1-yl)ethanone]",,100%,,4.81,,4.68
O=C(Cn1nc(C(F)F)cc1C(F)F)N1CCC(c2nc(C3=NOC(c4ccccc4C=NO)C3)cs2)CC1 (mixture of isomers) [Example I-35],,95%,100%,,,
N#CCOc1cccc(F)c1C1CC(c2csc(C3CCN(C(=O)Cn4nc(C(F)F)cc4C(F)F)CC3)n2)=NO1 (centres unmarked) [Example I-113],,85%,100%,,,
CON=C(C)c1cccc(C2CC(c3csc(C4CCN(C(=O)Cn5nc(C(F)(F)F)cc5C)CC4)n3)=NO2)c1 (centres unmarked) [Example I-3],,100%,97%,,,
CSCOc1ccccc1C1CC(c2csc(C3CCN(C(=O)Cn4nc(C(F)F)cc4C(F)F)CC3)n2)=NO1 (centres unmarked) [Example I-112],,94%,100%,,,
CCS(=O)(=O)Oc1ccccc1C1CC(c2csc(C3CCN(C(=O)Cn4nc(C(F)F)cc4C(F)F)CC3)n2)=NO1 (centres unmarked) [Example I-65],,100%,100%,,90%,
O=CNc1ccccc1C1CC(c2csc(C3CCN(C(=O)Cn4nc(C(F)F)cc4C(F)F)CC3)n2)=NO1 (centres unmarked) [Example I-108],,100%,93%,,,
Cc1cc(C(F)(F)F)nn1CC(=O)N1CCC(c2nc(C3=NOC(c4c(Cl)cccc4OS(C)(=O)=O)C3)cs2)CC1 (centres unmarked) [Example I-103],,80%,100%,,,
O=CNc1ccccc1C1CC(c2csc(C3CCN(C(=O)Cc4cc(C(F)F)ccc4C(F)F)CC3)n2)=NO1 (centres unmarked) [Example I-123],,100%,73%,,,
N#CCCn1cccc1C1CC(c2csc(C3CCN(C(=O)Cn4nc(C(F)F)cc4C(F)F)CC3)n2)=NO1 (centres unmarked) [Example I-87],,80%,95%,,,
O=CNc1ccccc1C1CC(c2csc(C3CCN(C(=O)Nc4cc(C(F)F)ccc4C(F)F)CC3)n2)=NO1 (centres unmarked) [Example I-122],,97%,89%,,,
CON=Cc1cccc(F)c1C1CC(c2csc(C3CCN(C(=O)Cn4nc(C(F)(F)F)cc4C)CC3)n2)=NO1 (centres unmarked) [Example I-118],,95%,100%,,,
